# Calls of active or inactive are those of the source. The rule behind the calls is not given here.
# Legend:
# SW1990 [1] = assay: Effect on CCNB1 gene expression in human SW1990 cells at 1 uM in presence of Olaparib by Q-PCR analysis; format: functional, cell-based
# [2] = Toxicity in nude mouse xenografted with human SW1990 cells assessed as liver damage at 15 mg/kg, ip administered for 28 days by H and E staining based fluorescence microscopic analysis; format: organism-based; conditions: in vivo, 672 h, time 28 day
# [3] = Toxicity in nude mouse xenografted with human SW1990 cells assessed as lung damage at 15 mg/kg, ip administered for 28 days in presence of 45 mg/kg Olaparib by H and E staining based fluorescence microscopic analysis; format: organism-based; conditions: in vivo, 672 h, time 28 day
# SW1990 [4] = assay: Effect on CDK1 gene expression in human SW1990 cells at 1 uM in presence of Olaparib by Q-PCR analysis; format: functional, cell-based
# SW1990 [5] = assay: Effect on CDK1 gene expression in human SW1990 cells at 4 uM by Q-PCR analysis; format: functional, cell-based
# SW1990 [6] = assay: Effect on CDK6 gene expression in human SW1990 cells at 4 uM by Q-PCR analysis; format: functional, cell-based
# SW1990 [7] = assay: Induction of apoptosis in human SW1990 cells assessed as early apoptotic cells at 4 uM measured after 4 days by Annexin V-FITC and propidium iodide staining based flow cytometry (reference value: 1.62%); format: functional; conditions: time 4 day
# SW1990 [8] = assay: Effect on c-Myc gene expression in human SW1990 cells at 4 uM by Q-PCR analysis; format: functional, cell-based
# SW1990 [9] = assay: Induction of cell cycle arrest in human SW1990 cells assessed as accumulation of cells at G0/G1 phase at 1 uM incubated for 4 days in presence of 3 uM Olaparib by propidium iodide staining based flow cytometry (reference value: 64.79%); format: functional; conditions: time 4 day
# SW1990 [10] = assay: Effect on CDC25A gene expression in human SW1990 cells at 4 uM by Q-PCR analysis; format: functional, cell-based
# SW1990 [11] = assay: Effect on FOXO1 gene expression in human SW1990 cells at 1 uM in presence of Olaparib by Q-PCR analysis; format: functional, cell-based
# SW1990 [12] = assay: Induction of apoptosis in human SW1990 cells assessed as necrotic cells at 1 uM measured after 4 days in presence of 3 uM Olaparib by Annexin V-FITC and propidium iodide staining based flow cytometry (reference value: 2.45%); format: functional; conditions: time 4 day
# SW1990 [13] = assay: Effect on E2F2 gene expression in human SW1990 cells at 1 uM in presence of Olaparib by Q-PCR analysis; format: functional, cell-based
# SW1990 [14] = assay: Effect on FOXM1 gene expression in human SW1990 cells at 1 uM in presence of Olaparib by Q-PCR analysis; format: functional, cell-based
# SW1990 [15] = assay: Effect on Rad51 gene expression in human SW1990 cells at 1 to 2 uM by Q-PCR analysis; format: functional, cell-based; conditions: dose 1-2 µM
# Mus musculus [16] = assay: Inhibition of E2F2 expression in nude mouse xenografted with human SW1990 cells at 30 mg/kg, ip measured after 4 days by Q-PCR analysis; format: functional, organism-based; conditions: time 4.0 day
# Mus musculus [17] = assay: Inhibition of homologous recombinant repair in nude mouse xenografted with human SW1990 cells assessed as reversal of olaparib-induced Rad51 expression at 30 mg/kg, ip after 4 days by Western blot analysis; format: functional, organism-based; conditions: time 4.0 day
# SW1990 [18] = assay: Effect on E2F2 gene expression in human SW1990 cells at 1 to 2 uM by Q-PCR analysis; format: functional, cell-based; conditions: dose 1-2 µM
# SW1990 [19] = assay: Effect on BRCA1 gene expression in human SW1990 cells at 1 to 2 uM by Q-PCR analysis; format: functional, cell-based; conditions: dose 1-2 µM
# SW1990 [20] = assay: Inhibition of E2F2 protein expression in human SW1990 cells at 1 to 2 uM measured after 4 days by Western blot analysis; format: functional, cell-based; conditions: dose 1-2 µM, time 4.0 day
# Mus musculus [21] = assay: Inhibition of homologous recombinant repair in nude mouse xenografted with human SW1990 cells assessed as reversal of olaparib-induced BRCA2 expression at 30 mg/kg, ip after 4 days by Western blot analysis; format: functional, organism-based; conditions: time 4.0 day
# SW1990 [22] = assay: Induction of apoptosis in human SW1990 cells assessed as late apoptotic cells at 2 uM measured after 4 days by Annexin V-FITC and propidium iodide staining based flow cytometry (reference value: 7.23%); format: functional; conditions: time 4 day
# Mus musculus [23] = assay: Inhibition of homologous recombinant repair in nude mouse xenografted with human SW1990 cells assessed as reversal of olaparib-induced BRCA1 expression at 30 mg/kg, ip measured after 4 days by Western blot analysis; format: functional, organism-based; conditions: time 4.0 day
# SW1990 [24] = assay: Induction of apoptosis in human SW1990 cells assessed as necrotic cells at 2 uM measured after 4 days by Annexin V-FITC and propidium iodide staining based flow cytometry (reference value: 2.45%); format: functional; conditions: time 4 day
# SW1990 [25] = assay: Induction of apoptosis in human SW1990 cells assessed as late apoptotic cells at 1 uM measured after 4 days by Annexin V-FITC and propidium iodide staining based flow cytometry (reference value: 7.23%); format: functional; conditions: time 4 day
# SW1990 [26] = assay: Antitumor activity against human SW1990 cells xenografted in nude mouse assessed as reduction in tumor size at 30 mg/kg, ip administered for 28 days and measured every 3 days by vernier caliper method; format: functional, organism-based; conditions: time 28.0 day
# SW1990 [27] = assay: Antiproliferative activity against human SW1990 cells assessed as inhibition of cell growth measured after 4 days by MTT assay; format: functional, cell-based; conditions: SW1990, 96 h
# Mus musculus [28] = assay: Inhibition of CCNB1 expression in nude mouse xenografted with human SW1990 cells at 30 mg/kg, ip measured after 4 days by Q-PCR analysis; format: functional, organism-based; conditions: time 4.0 day
# SW1990 [29] = assay: Upregulation of E2F2 expression in human SW1990 cells at 6 uM measured after 4 days by Western blot analysis; format: functional, cell-based; conditions: time 4.0 day
# SW1990 [30] = assay: Upregulation of PARP1 expression in human SW1990 cells at 6 uM measured after 4 days by Western blot analysis; format: functional, cell-based; conditions: time 4.0 day
# [31] = Toxicity in nude mouse xenografted with human SW1990 cells assessed as liver damage at 45 mg/kg, ip administered for 28 days by H and E staining based fluorescence microscopic analysis; format: organism-based; conditions: in vivo, 672 h, time 28 day
# SW1990 [32] = assay: Induction of DNA damage in human SW1990 cells assessed as increase in gammaH2AX expression at 6 uM incubated for 4 days by DAPI staining based laser confocal microscopic analysis; format: functional, cell-based; conditions: time 4.0 day
# Mus musculus [33] = assay: Upregulation of CDK6 expression in nude mouse xenografted with human SW1990 cells at 45 mg/kg, ip measured after 4 days by Western blot analysis; format: functional, organism-based; conditions: time 4.0 day
# [34] = Toxicity in nude mouse xenografted with human SW1990 cells assessed as kidney damage at 45 mg/kg, ip administered for 28 days by H and E staining based fluorescence microscopic analysis; format: organism-based; conditions: in vivo, 672 h, time 28 day
# SW1990 [35] = assay: Induction of apoptosis in human SW1990 cells assessed as early apoptotic cells at 6 uM measured after 4 days by Annexin V-FITC and propidium iodide staining based flow cytometry (reference value: 1.62%); format: functional; conditions: time 4 day
# SW1990 [36] = assay: Effect on HEXIM1 gene expression in human SW1990 cells at 6 uM by Q-PCR analysis; format: functional, cell-based
# SW1990 [37] = assay: Upregulation of BRD4 expression in human SW1990 cells at 6 uM measured after 4 days by Western blot analysis; format: functional, cell-based; conditions: time 4.0 day
# Mus musculus [38] = assay: Upregulation of CCND1 expression in nude mouse xenografted with human SW1990 cells at 45 mg/kg, ip measured after 4 days by Q-PCR analysis; format: functional, organism-based; conditions: time 4.0 day
smiles,measurement,setting,value
Cc1sc2c(c1C)C(c1ccc(Cl)cc1)=N[C@@H](CC(=O)OC(C)(C)C)c1nnc(C)n1-2,Activity,SW1990 [1],Active
same,Activity,[2],Non-Toxic
same,Activity,[3],Non-Toxic
same,Activity,SW1990 [4],Active
same,Activity,SW1990 [5],Active
same,Activity,SW1990 [6],Active
same,Activity,SW1990 [7],1.73%
same,Activity,SW1990 [8],Active
same,Activity,SW1990 [9],71.53%
same,Activity,SW1990 [10],Active
same,Activity,SW1990 [11],Active
same,Activity,SW1990 [12],5.76%
same,Activity,SW1990 [13],Active
same,Activity,SW1990 [14],Active
Cc1noc(C)c1-c1ccc2c(c1)C(c1ccccc1)N(Cc1nc3c(C(N)=O)cccc3[nH]1)C(=O)N2C (stereo not drawn),Activity,SW1990 [15],Active
same,inhibition,Mus musculus [16],Active
same,inhibition,Mus musculus [17],Active
same,Activity,SW1990 [18],Active
same,Activity,SW1990 [19],Active
same,inhibition,SW1990 [20],Active
same,inhibition,Mus musculus [21],Active
same,Activity,SW1990 [22],39.5%
same,inhibition,Mus musculus [23],Active
same,Activity,SW1990 [24],3.52%
same,Activity,SW1990 [25],33.6%
same,Activity,SW1990 [26],Active
same,IC50,SW1990 [27],1340 nM
same,inhibition,Mus musculus [28],Active
O=C(c1cc(Cc2n[nH]c(=O)c3ccccc23)ccc1F)N1CCN(C(=O)C2CC2)CC1 [OLAPARIB],Activity,SW1990 [29],Active
same,Activity,SW1990 [30],Active
same,Activity,[31],Non-Toxic
same,Activity,SW1990 [32],Active
same,Activity,Mus musculus [33],Active
same,Activity,[34],Non-Toxic
same,Activity,SW1990 [35],1.84%
same,Activity,SW1990 [36],Active
same,Activity,SW1990 [37],Active
same,Activity,Mus musculus [38],Active
